Measurements: patent US4977151A, “Ethanone oximes and pharmaceutical compositions thereof” (Mitsubishi Kasei Corporation, priority 1987, dated 1990)
Counter-ions that a name gives are not always drawn.

system: stress-induced gastric ulcer; assay: Anti-stress ulcer test: inhibition of stress-induced gastric ulcer in rats; format: in vivo, rat (Douryu male rats); conditions: Rattus norvegicus, po, 15 h, read-out: Inhibition Rate of Stress-Induced Ulcer (%)
Protocol: Anti-stress ulcer tests were conducted as described below. Douryu non-fasted male rats (Shizuoka Laboratory Animal Center, body weight: 220-250 g), five in each group, were immobilized within a stress cage made of wire net and immersed in a water bath at 22 ±1° C. to a depth of xiphoid for loading them with stresses. The rats were clubbed to death after 15 hours and their stomachs were extirpated. After injecting about 15 ml of an aqueous 1% formalin solution into each of the stomachs, they were immersed in an aqueous 1 % formalin solution for about 10 minutes and fixed. After fixation, the stomachs were incised along the greater curvature. The longer diameter of each ulcer generated in the glandular portion was measured under stereomicroscope (X10) and the sum of them was defined to be an ulcer coefficient (mm). Chemicals to be tested were suspended in an aqueous 1 % gum arabic solution and orally administrated at a dose of 2 ml/kg, 30 min before the stress loading. For the control group, an aqueous 1 % gum arabic solution only was administrated, and their ulcer coefficient was compared to that of the group administrated with the tested chemicals to calculate the suppression rate of the tested chemicals. The dosage was 50 mg/kg for each of the compounds. The test compounds in the table are identified in corresponding Examples hereinafter described.

Q: For `CN=C(NC#N)NCCSCc1nc[nH]c1C` [Cimethidine, reference compound], which inhibition in vivo at 200 mg/kg is on record?
A: 69.7%

same assay, conditions: Rattus norvegicus; 50 mg/kg, oral, 30 min before stress loading; water immersion stress 22 ±1° C., 15 hours; vs control group; read-out: Inhibition Rate of Stress-Induced Ulcer (%)

Q: With `CN1CCN(C/C(=N\O)c2ccc(NS(=O)(=O)c3ccccc3)cc2)CC1` [Example 31, (Z)-2-(4-methylpiperazin-1-yl)-1-(4-benzenesulfonyl-amino-phenyl)-ethanone oxime] as the molecule, how does the inhibition in vivo at 50 mg/kg read?
A: 48.4%

Q: Which inhibition in vivo at 50 mg/kg does the source give for `CN1CCN(C/C(=N\O)c2ccc3c(c2)Nc2ccccc2S3)CC1` [Example 22, (Z)-2-(4-methylpiperazin-1-yl)-1-(4-phenothiazin-2-yl)-ethanone oxime] here?
A: 50.6%

Q: With `CN1CCN(C/C(=N\O)c2ccc(Cc3ccccc3)cc2)CC1` [Example 5, (Z)-2-(4-methylpiperazin-1-yl)-1-(4-benzyl-phenyl)-ethanone oxime] as the molecule, how does the inhibition in vivo at 50 mg/kg read?
A: 100%

Q: With `CC(C)Oc1ccccc1CCc1ccc(/C(CN2CCN(C)CC2)=N/O)cc1` [Example 40, (Z)-2-(4-methylpiperazin-1-yl)-1-(4-(2-(2-isopropoxy-phenyl)-ethyl)-phenyl)-ethanone oxime] as the molecule, how does the inhibition in vivo at 50 mg/kg read?
A: 41.9%

Q: For `CC1c2ccccc2CCc2ccc(/C(CN3CCN(C)CC3)=N/O)cc21` (centres unmarked) [Example 18, (Z)-2-(4-methylpiperazin-1-yl)-1-(10,11-dihydro-5H-5-methyldibenzo[a,b]cyclohepten-3-yl)-ethanone oxime], which inhibition in vivo at 50 mg/kg is on record?
A: 100%

Q: Which inhibition in vivo at 50 mg/kg does the source give for `CN1CCN(C/C(=N\O)c2ccc(-n3ccnc3)cc2)CC1` [Example 23, (Z)-2-(4-methylpiperazin-1-yl)-1-(4-(imidazol-1-yl)phenyl)-ethanone oxime] here?
A: 50.5%

Q: How did the inhibition in vivo at 50 mg/kg turn out when `CN1CCN(C/C(=N\O)c2ccc(CCc3ccccc3)cc2)CC1` [Example 8, (Z)-2-(4-methylpiperazin-1-yl)-1-(4-(2-phenylethyl)-phenyl)-ethanone oxime] was run?
A: 65.7%

Q: How did the inhibition in vivo at 50 mg/kg turn out when `CC(=O)N(c1ccccc1)c1ccc(/C(CN2CCN(C)CC2)=N/O)cc1` [Example 6, (Z)-2-(4-methylpiperazin-1-yl)-1-(4-(N-acetyl-N-phenylamino)-phenyl)-ethanone oxime] was run?
A: 85.7%

Q: Which inhibition in vivo at 50 mg/kg does the source give for `CCC1c2ccccc2CCc2ccc(/C(CN3CCN(C)CC3)=N/O)cc21` (centres unmarked) [Example 19, (Z)-2-(4-methylpiperazin-1-yl)-1-(10,11-dihydro-5H-5-ethyldibenzo[a,b]cyclohepten-3-yl)-ethanone oxime] here?
A: 90.7%

Q: `CCOc1cc(CCc2ccccc2)ccc1/C(CN1CCN(C)CC1)=N/O` [Example 34, (Z)-2-(4-methylpiperazin-1-yl)-1-(2-ethoxy-4-(2-phenylethyl)-phenyl)-ethanone oxime hydrochloride] was tested. Which inhibition in vivo at 50 mg/kg did it give?
A: 100%

Q: How did the inhibition in vivo at 50 mg/kg turn out when `O/N=C(\CN1CCCCC1)c1ccc(CCc2ccccc2)cc1` [Example 11, (Z)-2-(piperidin-1-yl)-1-(4-(2-phenylethyl)-phenyl)-ethanone oxime] was run?
A: 53%

Q: Which inhibition in vivo at 50 mg/kg does the source give for `CN1CCN(C/C(=N\O)c2ccc(OCc3ccccc3)cc2)CC1` [Example 33, (Z)-2-(4-methyl-piperazin-1-yl)-1-(4-benzyloxy-phenyl)-ethanone oxime hydrochloride] here?
A: 41.4%

Q: How did the inhibition in vivo at 50 mg/kg turn out when `O/N=C(\CN1CCCCC1)c1ccc(-n2ccnc2)cc1` [Example 24, (Z)-2-(piperidin-1-yl)-1-(4-(imidazol-1-yl)-phenyl)-ethanone oxime] was run?
A: 41.5%

Q: `CN1CCN(C/C(=N\O)c2ccc(N(c3ccccc3)c3ccccc3)cc2)CC1` [Example 7, (Z)-2-(4-methylpiperazin-1-yl)-1-(4-diphenylamino-phenyl)-ethanone oxime] was tested. Which inhibition in vivo at 50 mg/kg did it give?
A: 74.6%

Q: For `CC(=O)N1c2ccccc2Sc2ccc(/C(CN3CCCCC3)=N/O)cc21` [Example 13], which inhibition in vivo at 50 mg/kg is on record?
A: 100%

Q: How did the inhibition in vivo at 50 mg/kg turn out when `CN1CCN(C/C(=N\O)c2ccc(S(=O)(=O)c3ccccc3)cc2)CC1` [Example 20, (Z)-2-(4-methylpiperazin-1-yl)-1-(4-phenylsulfonyl-phenyl)-ethanone oxime] was run?
A: 80.3%

Q: Which inhibition in vivo at 50 mg/kg does the source give for `CN1CCN(C/C(=N\O)c2ccc3c(c2)Sc2ccccc2S3)CC1` [Example 14] here?
A: 51.9%

Q: With `CN1CCN(C/C(=N\O)c2ccc(C3CCCCC3)cc2)CC1` [Example 3, (Z)-2-(4-methylpiperazin-1-yl)-1-(4-cyclohexyl-phenyl)-ethanone oxime] as the molecule, how does the inhibition in vivo at 50 mg/kg read?
A: 59.7%

Q: Which inhibition in vivo at 50 mg/kg does the source give for `CN1CCN(C/C(=N\O)c2ccc(Sc3ccccc3)cc2)CC1` [Example 1, (Z)-2-(4-methyl-piperazin-1-yl)-1-(4-phenylthio-phenyl)-ethanone oxime hydrochloride] here?
A: 76.9%
